# Source: BindingDB's records for doi:10.1021/jm030871u (2003)
# Residues, ends and D or L forms follow the SMILES beside them. *: point of attachment. X1 = CC(C)CCC[C@@H](C)[C@H]1CCC2C3CC=C4C[C@H](SC[C@@H]5CCN6CC[C@@H](CSCC(=O)*)NC6=N5)CC[C@]4(C)C3CC[C@@]21C; X2 = CC(C)(C)[Si](OCC1CCN2CCC(CSCC(=O)*)NC2=N1)(c1ccccc1)c1ccccc1; OBn = c1ccc(CO*)cc1; Bn = c1ccc(C*)cc1
# Target: Human immunodeficiency virus type 1 protease (Human immunodeficiency virus 1, UniProt Q72874)
# Experiment: Competitive inhibition against HIV-1 Protease
row,Ki [µM],SMILES
1,0.4,CC(C)CCC[C@@H](C)[C@H]1CCC2C3CC=C4C[C@H](SC[C@@H]5CCN6CC[C@@H](CSCC(=O)NCC(=O)N[C@@H](C)C(=O)N[C@H](C(=O)N[C@@H](CC(C)C)C(=O)N[C@@H](CC(N)=O)C(=O)N[C@@H](Cc7ccccc7)C(=O)OCc7ccccc7)[C@@H](C)OCc7ccccc7)NC6=N5)CC[C@]4(C)C3CC[C@@]21C (some centres not stated) (X1-GAT(Bn)LNF-OBn)
2,6,CC[C@H](C)[C@H](NC(=O)CNC(=O)CSCC1CCN2CCC(CO[Si](c3ccccc3)(c3ccccc3)C(C)(C)C)N=C2N1)C(=O)N[C@@H](CO)C(=O)N[C@@H](Cc1ccc(O)cc1)C(=O)N[C@@H](CC(N)=O)C(=O)N[C@@H](CC(C)C)C(=O)OC (some centres not stated) [Bicyclic Guanidinium Subunit] (X2-GISYNL-OMe)
